Data on nine compounds can be found in publication PMC2918654 (Bioorganic & medicinal chemistry, 2010).

Read-outs that look alike come from different tables or passages of the source. Where a SMILES comes first, the peptide text is derived from it. [ ]: non-standard residue; d: D form. The star is where a group is joined. Dmt = Cc1cc(O)cc(C)c1C[C@H](N)C(=O)O; Tic = O=C(O)[C@@H]1Cc2ccccc2CN1; NHBn = c1ccc(CN*)cc1 Bounds are passed on as bounds.

Data set [1] concerns the target T1, δ-opioid receptors (Rattus norvegicus, UniProt P33533). Nature of the data set: Competitive binding assay, δ-opioid receptors, [3H]deltorphin II. As to conditions: for selectivity Ki^μ/Ki^δ: ratio of binding Ki values. Also on record: species or system Sprague-Dawley rats.
Data set [2] has as its target μ-opioid receptors (Rattus norvegicus, UniProt P33535). Nature of the data set: Competitive binding assay, μ-opioid receptors, [3H]DAMGO. Details: species or system Sprague-Dawley rats.
The target in data set [3] is T2, δ-opioid receptor (Mus musculus, UniProt P32300). Briefly: Electrically stimulated mouse vas deferens. The format is cell-based.
Data set [4] has as its target T3, μ-opioid receptor (Cavia porcellus, UniProt P97266). Nature of the data set: Electrically stimulated guinea-pig ileum. The format is cell-based, guinea pigs.
Data set [5] concerns the target T1, δ-opioid receptors. As to conditions: ref Balboni et al.[14]; cited from earlier work.
The target of data set [6] is T2, δ-opioid receptor. As to conditions: δ antagonism, cited from earlier work.
Data set [7] deals with T3, μ-opioid receptor. As to conditions: μ antagonism, cited from earlier work.
The conditions of data set [8]: about 2 units lower than Tyr; cited from earlier work.
The target of data set [9] is δ opioid receptor. As to conditions: read-out: δ agonist IC50; cited from earlier work.

The term Ki denotes a dissociation constant, usually derived from enzyme kinetics or from competition with a known ligand. Usually IC50 stands for the midpoint of a concentration-inhibition curve. Usually pKa stands for the pH at which an ionisable group is half protonated.

Sequence of μ-opioid receptors (P33535 whole entry): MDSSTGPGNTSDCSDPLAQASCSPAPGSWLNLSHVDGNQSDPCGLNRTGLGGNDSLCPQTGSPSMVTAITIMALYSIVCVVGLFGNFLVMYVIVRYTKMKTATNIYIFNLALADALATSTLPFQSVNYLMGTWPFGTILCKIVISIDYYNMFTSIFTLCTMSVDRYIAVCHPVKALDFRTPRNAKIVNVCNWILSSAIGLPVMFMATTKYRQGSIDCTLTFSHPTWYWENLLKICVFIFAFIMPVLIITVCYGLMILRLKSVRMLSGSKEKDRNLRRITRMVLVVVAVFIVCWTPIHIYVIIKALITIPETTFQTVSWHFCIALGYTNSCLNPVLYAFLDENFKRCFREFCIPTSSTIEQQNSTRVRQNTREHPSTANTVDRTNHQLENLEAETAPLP
T1 sequence (P33533 whole entry): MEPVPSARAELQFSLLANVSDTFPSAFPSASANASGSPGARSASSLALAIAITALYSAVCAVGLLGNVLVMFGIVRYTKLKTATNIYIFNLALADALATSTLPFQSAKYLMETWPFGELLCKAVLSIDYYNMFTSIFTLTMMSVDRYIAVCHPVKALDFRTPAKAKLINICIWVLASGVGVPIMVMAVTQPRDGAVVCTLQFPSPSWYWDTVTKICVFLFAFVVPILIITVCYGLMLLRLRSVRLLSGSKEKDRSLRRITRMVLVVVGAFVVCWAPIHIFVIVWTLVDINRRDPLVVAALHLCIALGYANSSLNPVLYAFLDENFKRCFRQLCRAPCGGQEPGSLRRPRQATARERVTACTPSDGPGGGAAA
T3 sequence (P97266 whole entry, looked up): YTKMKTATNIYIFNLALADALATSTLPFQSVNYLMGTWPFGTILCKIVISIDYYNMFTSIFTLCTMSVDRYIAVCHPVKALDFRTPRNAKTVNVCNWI
T2 sequence (P32300 whole entry): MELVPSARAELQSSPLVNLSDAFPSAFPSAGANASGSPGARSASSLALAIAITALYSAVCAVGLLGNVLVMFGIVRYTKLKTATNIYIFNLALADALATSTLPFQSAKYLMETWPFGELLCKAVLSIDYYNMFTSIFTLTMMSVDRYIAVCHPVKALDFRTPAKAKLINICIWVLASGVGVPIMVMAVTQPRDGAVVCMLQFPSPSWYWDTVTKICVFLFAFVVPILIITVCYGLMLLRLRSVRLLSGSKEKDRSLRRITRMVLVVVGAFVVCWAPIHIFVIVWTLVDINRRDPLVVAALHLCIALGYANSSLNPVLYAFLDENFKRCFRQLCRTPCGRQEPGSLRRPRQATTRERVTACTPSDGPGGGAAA

As to `CC(C)[C@H](NC(=O)[C@H](CCC(=O)O)NC(=O)[C@H](Cc1ccccc1)NC(=O)[C@@H](C)NC(=O)[C@@H](N)Cc1c(F)cc(O)cc1F)C(=O)N[C@H](C(=O)NCC(N)=O)C(C)C` [Compound 8, [Dft^1]Deltorphin B], the inhibition constant (Ki) came to 0.241 ± 0.03 nM in [1] and 154 ± 19 nM in [2]. Also, the “selectivity Ki^μ/Ki^δ” value in data set [1] was found to be 640. The IC50 in data set [3] was found to be 0.4 ± 0.08 nM; in data set [4], 3560 ± 566 nM.

In the case of `CC(C)[C@H](NC(=O)[C@H](CCC(=O)O)NC(=O)[C@H](Cc1ccccc1)NC(=O)[C@@H](C)NC(=O)[C@@H](N)Cc1ccc(O)cc1)C(=O)N[C@H](C(=O)NCC(N)=O)C(C)C` [Compound 9, H-Tyr-D-Ala-Phe-Glu-Val-Val-Gly-NH2, reference compound], in data set [4], the IC50 is more than 10000 nM.

In the case of `Cc1cc(O)cc(C)c1C[C@H](N)C(=O)N1Cc2ccccc2C[C@H]1C(=O)N[C@@H](CCCCN)C(=O)NCc1ccccc1` [Compound 10, H-Dmt-Tic-Lys-NH-Bzl] (H-[Dmt]-[Tic]-Lys-NHBn), the “selectivity Ki^μ/Ki^δ” value in [5] is recorded as 8. For the same compound, in [6] (ref Balboni et al.[14]), the “functional bioactivity MVD pA2” value is on record as 6.01. Besides, the “functional bioactivity GPI pA2” value in data set [7] (ref Balboni et al.[14]) is 7.96.

For the compound `NCCCC[C@H](NC(=O)[C@@H]1Cc2ccccc2CN1C(=O)[C@@H](N)Cc1c(F)cc(O)cc1F)C(=O)NCc1ccccc1` [Compound 11, H-Dft-Tic-Lys-NH-Bzl], in data set [1], the Ki stood at 153 ± 21 nM and the “selectivity Ki^μ/Ki^δ” value was determined as 7. Moreover, in data set [2], the Ki turned out to be 1030 ± 83 nM.

With `NCCCC[C@H](NC(=O)[C@@H]1Cc2ccccc2CN1C(=O)[C@@H](N)Cc1ccc(O)cc1)C(=O)NCc1ccccc1` [Compound 12, H-Tyr-Tic-Lys-NH-Bzl] (H-Tyr-[Tic]-Lys-NHBn), in data set [1], the inhibition constant (Ki) is 63.9 ± 7.6 nM and the “selectivity Ki^μ/Ki^δ” value was determined as 26. In data set [2], this compound yielded a Ki of 1650 ± 231 nM.

For the compound `Cc1cc(O)cc(C)c1C[C@@H](C(=O)N1Cc2ccccc2C[C@H]1C(=O)O)N(C)C` [Compound 13, N,N(Me)2-Dmt-Tic-OH], the “functional bioactivity MVD pA2” value in data set [6] (ref Salvadori et al.[15]) is on record as 9.4. Further, in data set [7] (ref Salvadori et al.[15]), the “functional bioactivity GPI pA2” value is 5.8.

On to `Cc1cc(O)cc(C)c1C[C@@H](C(=O)N1Cc2ccccc2C[C@H]1C(N)=O)N(C)C` [Compound 16, N,N(Me)2-Dmt-Tic-NH2], for which the “functional bioactivity MVD pA2” value in data set [6] (ref Salvadori et al.[15]) was 9.9. Moreover, in data set [7] (ref Salvadori et al.[15]), the “functional bioactivity GPI pA2” value is listed as 6.3.

`N[C@@H](Cc1c(F)cc(O)cc1F)C(=O)O` [Dft, 2′,6′-difluoro-L-tyrosine]: the pKa in data set [8] was 8.1.

As to H-Bcp-Tic-Phe-Phe-OH, the IC50 in data set [9] was 3.42 nM.
